Source: patent publication US11780826B2 (Amgen Inc., priority 2017, dated 2023)

Tested on: Bovine cardiac myofibrils
Assay: In vitro model of dose-dependent myofibril ATPase modulation (AC1.4, pyruvate kinase/lactate dehydrogenase-coupled ATPase assay at pCa25)
Format: biochemical
Settings: concentration at which ATPase activity was 1.4-fold higher than the bottom of the dose curve, mean of a minimum of two independent tests
Outline: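 Compound dilutions were premixed with myofibrils, coupling enzymes, EGTA and CaCl2, then the reaction was started with an equal volume carrying ATP (final 1 mM), NADH and PEP. ATP turnover was followed at 340 nm, and dose responses were fit to a four-parameter equation.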

SMILES	AC1.4 [µM]
N#CC1CN(S(=O)(=O)N2CCC[C@H](C(=O)N3CCC[C@@H]3C(=O)NC(c3ccc(Cl)cc3)C3CCCO3)C2)C1 (stereo partly drawn) [Example 132, N-(-(4-chlorophenyl)(-tetrahydro-2-furanyl)methyl)-1-(((3S)-1-((3-cyano-1-azetidinyl)sulfonyl)-3-piperidinyl)carbonyl)-D-prolinamide]	0.2176
CCNc1cnc(C)cc1C(=O)N1[C@@H](C(=O)N[C@@H](c2ccc(C(F)(F)F)cc2F)C2CC2)C[C@H]2C[C@H]21 [Example 383, (1R,3R,5R)-N-((R)-cyclopropyl(2-fluoro-4-(trifluoromethyl)phenyl)methyl)-2-((5-(ethylamino)-2-methyl-4-pyridinyl)carbonyl)-2-azabicyclo[3.1.0]hexane-3-carboxamide]	1.2725
CS(=O)(=O)c1ccc(NC2CCC2)c(C(=O)N2[C@@H](C(=O)N[C@@H](c3ccc(C(F)(F)F)cc3F)C3CC3)C[C@H]3C[C@H]32)c1 [Example 40, (1R,3R,5R)-2-(2-(cyclobutylamino)-5-(methylsulfonyl)benzoyl)-N-((R)-cyclopropyl(2-fluoro-4-(trifluoromethyl)phenyl)methyl)-2-azabicyclo[3.1.0]hexane-3-carboxamide]	0.0398
CCS(=O)(=O)c1cccc(C(=O)N2CCC[C@@H]2C(=O)N[C@@H](c2ccc(C(F)(F)F)cc2F)C2CC2)c1 [Example 212, N-((R)-cyclopropyl(2-fluoro-4-(trifluoromethyl)phenyl)methyl)-1-(3-(ethylsulfonyl)benzoyl)-D-prolinamide]	0.4557
Cc1ccc([C@@H](C)NC(=O)[C@H]2CCCN2C(=O)c2cccc(S(=O)(=O)N3CC(C#N)C3)c2)c(F)c1 [Example 46, 1-((3-((3-cyano-1-azetidinyl)sulfonyl)phenyl)carbonyl)-N-((1R)-1-(2-fluoro-4-methylphenyl)ethyl)-D-prolinamide]	0.0456
CS(=N)(=O)c1cccc(C(=O)N2[C@@H](C(=O)N[C@@H](c3cc(F)c(Cl)cc3F)C3CC3)C[C@H]3C[C@H]32)c1 (stereo partly drawn) [Example 752, (1R,3R,5R)—N—((R)-(4-chloro-2,5-difluorophenyl)(cyclopropyl)methyl)-2-(3-(S-methylsulfonimidoyl)benzoyl)-2-azabicyclo[3.1.0]hexane-3-carboxamide]	7.417
N#CC1CN(S(=O)(=O)c2cccc(C(=O)N3C[C@H]4C[C@H]4[C@@H]3C(=O)NCc3ccc(C(F)(F)F)cc3)c2)C1 [Example 5]	0.01655
N#CC1CN(S(=O)(=O)N2CCC[C@H](C(=O)N3CCC[C@@H]3C(=O)NCc3ccc(C(F)(F)F)cc3Cl)C2)C1 [Example 63, N-(2-chloro-4-(trifluoromethyl)benzyl)-1-(((3S)-1-((3-cyano-1-azetidinyl)sulfonyl)-3-piperidinyl)carbonyl)-D-prolinamide]	0.07385
N#CC1CN(S(=O)(=O)N2CCN[C@H](C(=O)N3CCC[C@@H]3C(=O)NCc3ccc(C(F)(F)F)cc3)C2)C1 [Example 239, 1-(((2S)-4-((3-cyano-1-azetidinyl)sulfonyl)-2-piperazinyl)carbonyl)-N-(4-(trifluoromethyl)benzyl)-D-prolinamide]	0.5676
O=C(N[C@@H](c1ccc(C(F)(F)F)cc1F)C1CC1)[C@H]1CCCCN1C(=O)c1cccc(C(O)(O)C(F)(F)F)c1 [Example 322, (2R)-N-((R)-cyclopropyl(2-fluoro-4-(trifluoromethyl)phenyl)methyl)-1-(3-(2,2,2-trifluoro-1,1-dihydroxyethyl)benzoyl)-2-piperidinecarboxamide]	0.8731
CCS(=O)(=O)c1ccnc(C(=O)N2[C@@H](C(=O)N[C@@H](c3cc(F)c(Cl)cc3F)C3CC3)C[C@H]3C[C@H]32)c1 [Example 133, (1R,3R,5R)-N-((R)-(4-chloro-2,5-difluorophenyl)(cyclopropyl)methyl)-2-((4-(ethylsulfonyl)-2-pyridinyl)carbonyl)-2-azabicyclo[3.1.0]hexane-3-carboxamide]	0.2186
CS(=O)(=O)c1ccc(N)c(C(=O)N2[C@@H](C(=O)N[C@@H](c3ccc(C(F)(F)F)cc3F)C3CC3)C[C@H]3C[C@H]32)c1 [Example 813, (1R,3R,5R)-2-(2-amino-5-(methylsulfonyl)benzoyl)-N-((R)-cyclopropyl(2-fluoro-4-(trifluoromethyl)phenyl)methyl)-2-azabicyclo[3.1.0]hexane-3-carboxamide]	0.7101
CCOc1ccc(CNC(=O)[C@H]2CCCN2C(=O)[C@H]2CCCN(S(=O)(=O)N3CC(C#N)C3)C2)cc1F [Example 708, 1-(((3S)-1-((3-cyano-1-azetidinyl)sulfonyl)-3-piperidinyl)carbonyl)-N-(4-ethoxy-3-fluorobenzyl)-D-prolinamide]	5.8345
N#CC1CN(S(=O)(=O)c2cccc(C(=O)N3CCC[C@@H]3C(=O)NCc3ncc(C(F)(F)F)cn3)c2)C1 [Example 725, 1-((3-((3-cyano-1-azetidinyl)sulfonyl)phenyl)carbonyl)-N-((5-(trifluoromethyl)-2-pyrimidinyl)methyl)-D-prolinamide]	6.507
Cc1ccc(C(F)(F)F)cc1CNC(=O)[C@H]1CCCN1C(=O)[C@H]1CCCN(S(=O)(=O)N2CC(C#N)C2)C1 [Example 714, 1-(((3S)-1-((3-cyano-1-azetidinyl)sulfonyl)-3-piperidinyl)carbonyl)-N-(2-methyl-5-(trifluoromethyl)benzyl)-D-prolinamide]	6.0545
N#CC1CN(S(=O)(=O)c2cccc(C(=O)N3CC(F)(F)C[C@@H]3C(=O)NCc3ccc(C(F)(F)F)cc3)c2)C1 [Example 8, 1-((3-((3-cyano-1-azetidinyl)sulfonyl)phenyl)carbonyl)-4,4-difluoro-N-(4-(trifluoromethyl)benzyl)-D-prolinamide]	0.0198
COc1cc(Cl)ccc1CNC(=O)[C@H]1CCCN1C(=O)[C@H]1CCCN(S(=O)(=O)N2CC(C#N)C2)C1 [Example 176, N-(4-chloro-2-methoxybenzyl)-1-(((3S)-1-((3-cyano-1-azetidinyl)sulfonyl)-3-piperidinyl)carbonyl)-D-prolinamide]	0.3085
CC1(O)CN(S(=O)(=O)N2CCC[C@H](C(=O)N3CCC[C@@H]3C(=O)NCc3ccc(C(F)(F)F)cc3)C2)C1 [Example 730, 1 (((3S)-1-((3-hydroxy-3-methyl-1-azetidinyl)sulfonyl)-3-piperidinyl)carbonyl)-N-(4-(trifluoromethyl)benzyl)-D-prolinamide]	6.7333
O=C(NCc1ccc(C(F)(F)F)cc1)[C@H]1CCCN1C(=O)[C@H]1CCCN(S(=O)(=O)N2CC(n3cccc3)C2)C1 [Example 367, 1-(((3S)-1-((3-(1H-pyrrol-1-yl)-1-azetidinyl)sulfonyl)-3-piperidinyl)carbonyl)-N-(4-(trifluoromethyl)benzyl)-D-prolinamide]	1.1962
O=C(NCc1ccc(Cl)c(F)c1)[C@H]1CCCN1C(=O)c1cccc(S(=O)(=O)N2CC(F)(F)C2)c1 [Example 238, N-(4-chloro-3-fluorobenzyl)-1-(3-((3,3-difluoro-1-azetidinyl)sulfonyl)benzoyl)-D-prolinamide]	0.5606
CS(=O)(=O)c1cc(C(=O)N2[C@@H](C(=O)N[C@@H](c3ccc(Cl)c(F)c3)C3CC3)C[C@H]3C[C@H]32)ccn1 [Example 795, (1R,3R,5R)-N-((R)-(4-chloro-3-fluorophenyl)(cyclopropyl)methyl)-2-((2-(methylsulfonyl)-4-pyridinyl)carbonyl)-2-azabicyclo[3.1.0]hexane-3-carboxamide]	9.3255
N#CC1CN(S(=O)(=O)N2CCC[C@H](C(=O)N3CCC[C@@H]3C(=O)NCc3c(F)c(F)c(F)c(F)c3F)C2)C1 [Example 338, 1-(((3S)-1-((3-cyano-1-azetidinyl)sulfonyl)-3-piperidinyl)carbonyl)-N-(pentafluorobenzyl)-D-prolinamide]	0.948
O=C(NCc1ccc(C(F)(F)F)cc1)[C@H]1CCCN1C(=O)[C@H]1CCCN(S(=O)(=O)N2CCC23CCC3)C1 [Example 800, 1-(((3S)-1-(1-azaspiro[3.3]hept-1-ylsulfonyl)-3-piperidinyl)carbonyl)-N-(4-(trifluoromethyl)benzyl)-D-prolinamide]	9.537
O=C(NCc1ccc(C(F)(F)F)cc1F)[C@H]1CCCN1C(=O)[C@H]1CCCN(S(=O)(=O)N2CC(O)(C(F)F)C2)C1 [Example 296, 1-(((3S)-1-((3-(difluoromethyl)-3-hydroxy-1-azetidinyl)sulfonyl)-3-piperidinyl)carbonyl)-N-(2-fluoro-4-(trifluoromethyl)benzyl)-D-prolinamide]	0.7679
CS(=O)(=O)c1cccc(C(=O)N2[C@@H](C(=O)N[C@@H](c3cc(F)c(Cl)cc3F)C3(F)COC3)C[C@H]3C[C@H]32)c1 [Example 812, (1R,3R,5R)-N-((S)-(4-Chloro-2,5-difluorophenyl)(3-fluorooxetan-3-yl)methyl)-2-(3-(methylsulfonyl)benzoyl)-2-azabicyclo[3.1.0]hexane-3-carboxamide]	1.5766
CC(=O)Nc1ccccc1C(=O)N1[C@@H](C(=O)N[C@@H](c2ccc(C(F)(F)F)cc2F)C2CC2)C[C@H]2C[C@H]21 [Example 372, (1R,3R,5R)-2-(2-acetamidobenzoyl)-N-((R)-cyclopropyl(2-fluoro-4-(trifluoromethyl)phenyl)methyl)-2-azabicyclo[3.1.0]hexane-3-carboxamide]	1.2085
CNc1ccc(S(C)(=O)=O)cc1C(=O)N1CCC[C@@H]1C(=O)N[C@@H](c1ccc(C(F)(F)F)cc1F)C1CC1 [Example 228, N-((R)-cyclopropyl(2-fluoro-4-(trifluoromethyl)phenyl)methyl)-1-(2-(methylamino)-5-(methylsulfonyl)benzoyl)-D-prolinamide]	0.4974
